Measured values: EPA's ToxRefDB 2

Legend:
mouse [1] = settings: Sub-acute repeat dose toxicity, Oral, Gavage/Intubation, dose end: 14 day, group: systemic
primate [2] = settings: Sub-acute repeat dose toxicity; Oral; Gavage/Intubation; dose end: 8 day; group: systemic; systemic / in life observation / clinical signs / emesis
rat [3] = settings: Sub-acute repeat dose toxicity; sprague dawley; Oral; Gavage/Intubation; dose end: 8 day; group: systemic; systemic / clinical chemistry / potassium / potassium + systemic / in life observation / body weight / body weight + systemic / clinical …
primate [4] = settings: Sub-acute repeat dose toxicity; Oral; Gavage/Intubation; dose end: 4 day; group: systemic; systemic / clinical chemistry / chloride / chlorine + systemic / clinical chemistry / cholesterol / cholesterol + systemic / clinical …
mouse [5] = settings: Sub-acute repeat dose toxicity; Oral; Gavage/Intubation; dose end: 14 day; group: systemic; systemic / clinical chemistry / [other] / [other] + systemic / clinical chemistry / cytochrome p450, nos / cytochrome p450, nos + systemic…
rat [6] = settings: Sub-acute repeat dose toxicity; sprague dawley; Oral; Gavage/Intubation; dose end: 14 day; group: systemic; systemic / clinical chemistry / [other] / [other] + systemic / clinical chemistry / 5' nucleotidase / 5' nucleotidase + systemic / clinical …
rat [7] = settings: Sub-acute repeat dose toxicity, sprague dawley, Oral, Gavage/Intubation, dose end: 14 day, group: systemic
mouse [8] = settings: Sub-acute repeat dose toxicity; Oral; Gavage/Intubation; dose end: 14 day; group: systemic; systemic / clinical chemistry / [other] / [other] + systemic / clinical chemistry / cytochrome p450, nos / cytochrome p450, nos + systemic…; remark: listed apart in the source
primate [9] = settings: Sub-acute repeat dose toxicity, Oral, Gavage/Intubation, dose end: 34 day, group: systemic
rat [10] = settings: Sub-acute repeat dose toxicity, sprague dawley, Oral, Gavage/Intubation, dose end: 34 day, group: systemic
mouse [11] = settings: Combined chronic toxicity/carcinogenicity; b6c3f1; Oral; Gavage/Intubation; dose end: 52 week; group: systemic; systemic / organ weight / liver / absolute + systemic / organ weight / liver / relative to body weight + systemic / pathology microscopic / …
rat [12] = settings: Subchronic oral toxicity in rodents, sprague dawley, Water, dose end: 90 day, group: systemic
primate [13] = settings: Sub-acute repeat dose toxicity; Oral; Gavage/Intubation; dose end: 5 day; group: systemic; systemic / clinical chemistry / bilirubin / total bilirubin + systemic / in life observation / clinical signs / abnormal feces + systemic / …
primate [14] = settings: Sub-acute repeat dose toxicity, Oral, Gavage/Intubation, dose end: 30 day, group: systemic
rat [15] = settings: Sub-acute repeat dose toxicity; sprague dawley; Oral; Gavage/Intubation; dose end: 14 day; group: systemic; systemic / hematology / erythrocyte (rbc) count differential / erythrocyte (rbc) + systemic / hematology / fibrinogen / fibrinogen + …
primate [16] = settings: Sub-acute repeat dose toxicity; Oral; Gavage/Intubation; dose end: 9 day; group: systemic; systemic / clinical chemistry / [other] / [other] + systemic / clinical chemistry / alanine aminotransferase (alt/sgpt) / alanine …
rat [17] = settings: Sub-acute repeat dose toxicity; sprague dawley; Oral; Gavage/Intubation; dose end: 28 day; group: systemic; systemic / in life observation / body weight / body weight + systemic / in life observation / clinical signs / feces, discoloration + …
[18] = systemic / clinical chemistry / [other] / [other] + systemic / clinical chemistry / cytochrome p450, nos / cytochrome p450, nos + systemic…
[19] = systemic / organ weight / liver / relative to body weight
[20] = systemic / clinical chemistry / cholesterol / cholesterol + systemic / clinical chemistry / globulins / globulins + systemic / clinical …
[21] = systemic / organ weight / liver / absolute + systemic / clinical chemistry / hepatic mixed function oxidase (mfo) assay / hepatic mixed …
[22] = systemic / organ weight / liver / absolute + systemic / in life observation / clinical signs / arrhythmia + systemic / in life observation…
[23] = systemic / clinical chemistry / hepatic mixed function oxidase (mfo) assay / hepatic mixed function oxidase (mfo) assay
[24] = systemic / hematology / erythrocyte (rbc) count differential / erythrocyte (rbc) + systemic / in life observation / mortality / mortality + …
[25] = systemic / clinical chemistry / alanine aminotransferase (alt/sgpt) / alanine aminotransferase (alt/sgpt) + systemic / clinical chemistry / …
[26] = systemic / clinical chemistry / protein / protein
[27] = systemic / in life observation / mortality / mortality + systemic / clinical chemistry / [other] / [other] + systemic / hematology / …
[28] = systemic / pathology gross / full gross necropsy / hemorrhage + systemic / pathology gross / full gross necropsy / lesion(s) (nos)

In the case of `NC(=O)N(O)Cc1ccc2c(c1)CCCN2CCCc1ccccc1`, the LOAEL (mouse [1]; [18]) is reported as > 200 mg/kg/day, the NOAEL (mouse [1]; [18]) is reported as ≥ 200 mg/kg/day and the LEL (mouse [1]; [19]) is reported as 50 mg/kg/day. The NEL (mouse [1]; [19]) was < 50 mg/kg/day, the LEL (primate [2]) was 150 mg/kg/day and the LOAEL (primate [2]) was > 150 mg/kg/day. For the same molecule, the NEL (primate [2]) was < 150 mg/kg/day, the NOAEL (primate [2]) was ≥ 150 mg/kg/day and the LEL (rat [3]) was 400 mg/kg/day. The LOAEL (rat [3]) was > 400 mg/kg/day, the NEL (rat [3]) was < 400 mg/kg/day and the NOAEL (rat [3]) was ≥ 400 mg/kg/day. The LEL (primate [4]) was 300 mg/kg/day, the LOAEL (primate [4]) was > 300 mg/kg/day and the NEL (primate [4]) was < 300 mg/kg/day. For the same molecule, the NOAEL (primate [4]) was ≥ 300 mg/kg/day, the LEL (mouse [5]) was 200 mg/kg/day and the LOAEL (mouse [5]) was > 200 mg/kg/day. For the same molecule, the NEL (mouse [5]) was < 200 mg/kg/day, the NOAEL (mouse [5]) was ≥ 200 mg/kg/day and the LEL (rat [6]) was 200 mg/kg/day. For the same molecule, the LOAEL (rat [6]) was > 200 mg/kg/day, the NEL (rat [6]) was < 200 mg/kg/day and the NOAEL (rat [6]) was ≥ 200 mg/kg/day. For the same molecule, the LOAEL (rat [7]; [20]) was > 100 mg/kg/day, the NEL (rat [7]; [20]) was 10 mg/kg/day and the NOAEL (rat [7]; [20]) was ≥ 100 mg/kg/day. The LEL (rat [7]; systemic / clinical chemistry / triglycerides / triglycerides + systemic / organ weight / liver / relative to body weight + systemic / …) was 32 mg/kg/day, the LEL (mouse [8]) was 200 mg/kg/day and the LOAEL (mouse [8]) was > 200 mg/kg/day. For the same molecule, the NEL (mouse [8]) was < 200 mg/kg/day, the NOAEL (mouse [8]) was ≥ 200 mg/kg/day and the LEL (primate [9]; [21]) was 5 mg/kg/day. For the same molecule, the NEL (primate [9]; [21]) was < 5 mg/kg/day, the LOAEL (primate [9]; [22]) was > 100 mg/kg/day and the NOAEL (primate [9]; [22]) was ≥ 100 mg/kg/day. The LEL (rat [10]; [23]) was 10 mg/kg/day, the NEL (rat [10]; [23]) was < 10 mg/kg/day and the LOAEL (rat [10]; [24]) was > 200 mg/kg/day. For the same molecule, the NOAEL (rat [10]; [24]) was ≥ 200 mg/kg/day.

`O=C(O)C(Cl)Cl` [Dichloroacetic acid] was tested, and the LEL (mouse [11]) was 133 mg/kg/day, the LOAEL (mouse [11]) was > 267 mg/kg/day and the NEL (mouse [11]) was < 133 mg/kg/day. For the same molecule, the NOAEL (mouse [11]) was ≥ 267 mg/kg/day, the LOAEL (rat [12]; [25]) was > 345 mg/kg/day and the NOAEL (rat [12]; [25]) was ≥ 345 mg/kg/day. For the same molecule, the LEL (rat [12]; [26]) was 3.9 mg/kg/day and the NEL (rat [12]; [26]) was < 3.9 mg/kg/day.

With `NC(=O)N1C(=O)C(C(=O)c2ccc(F)s2)c2cc(F)c(Cl)cc21` (stereo not drawn) the LEL (primate [13]) was 30 mg/kg/day, the LOAEL (primate [13]) was > 30 mg/kg/day and the NEL (primate [13]) was < 30 mg/kg/day. The NOAEL (primate [13]) was ≥ 30 mg/kg/day, the LOAEL (primate [14]; [27]) was > 10 mg/kg/day and the NOAEL (primate [14]; [27]) was ≥ 10 mg/kg/day. The LEL (primate [14]; [28]) was 1 mg/kg/day, the NEL (primate [14]; [28]) was < 1 mg/kg/day and the LEL (rat [15]) was 30 mg/kg/day. For the same molecule, the LOAEL (rat [15]) was > 30 mg/kg/day, the NEL (rat [15]) was 10 mg/kg/day and the NOAEL (rat [15]) was ≥ 30 mg/kg/day. For the same molecule, the LEL (primate [16]) was 2 mg/kg/day, the LOAEL (primate [16]) was > 20 mg/kg/day and the NEL (primate [16]) was < 2 mg/kg/day. The NOAEL (primate [16]) was ≥ 20 mg/kg/day, the LEL (rat [17]) was 3 mg/kg/day and the LOAEL (rat [17]) was > 20 mg/kg/day. For the same molecule, the NEL (rat [17]) was < 3 mg/kg/day and the NOAEL (rat [17]) was ≥ 20 mg/kg/day.
